According to ChEMBL document CHEMBL1201862, “PubChem BioAssay data set” (2004):
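96-well plates; 48 h exposure; 5 concentrations. Endpoints by linear interpolation between flanking doses. Not reached: highest tested concentration assigned. GI50: concentration for 50% inhibition of growth.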 Calls of active or inactive are those of the source. No stated cut-off is given here; in the data, active = GI50 up to about 1.1 µM and inactive = higher.

What was measured:
Test in all cases: inhibition of tumour cell growth, NCI panel, 48 h
[1] = test system: M19-MEL
[2] = test system: DMS-273
[3] = test system: OVCAR-4
[4] = test system: SK-MEL-28
[5] = test system: UO-31
[6] = test system: COLO 205
[7] = test system: SNB-19
[8] = test system: CCRF-CEM
[9] = test system: SF-539
[10] = test system: OVCAR-8
[11] = test system: HCC 2998
[12] = test system: LOX IMVI
[13] = test system: RXF 631
[14] = test system: DLD-1
[15] = test system: SF-268
[16] = test system: Malme-3M
[17] = test system: SNB-78
[18] = test system: MOLT-4
[19] = test system: SK-MEL-2
[20] = test system: NCI-H522
[21] = test system: CAKI-1
[22] = test system: SW-620
[23] = test system: OVCAR-5
[24] = test system: HCT-116
[25] = test system: A549
[26] = test system: 786-0
[27] = test system: NCI-H23
[28] = test system: DMS-114
[29] = test system: NCI-H226
[30] = test system: U-251
[31] = test system: KM-20L2
[32] = test system: UACC-257
[33] = test system: SK-MEL-5
[34] = test system: SNB-75
[35] = test system: ACHN
[36] = test system: SN12C
[37] = test system: A498
[38] = test system: HOP-18
[39] = test system: M14
[40] = test system: HOP-62
[41] = test system: SF-295
[42] = test system: RPMI-8226
[43] = test system: K562
[44] = test system: UACC-62
[45] = test system: HL-60
[46] = test system: SR
[47] = test system: SK-OV-3
[48] = test system: HT-29
[49] = test system: IGROV-1
[50] = test system: TK-10
[51] = test system: HCT-15
[52] = test system: LXFL 529
[53] = test system: NCI-H460
[54] = test system: EKVX
[55] = test system: HOP-92
[56] = test system: KM12
[57] = test system: OVCAR-3
[58] = test system: XF498
[59] = test system: RXF 393

## COc1cc(C2=NN(C)C(c3ccc([N+](=O)[O-])o3)C2)cc(OC)c1OC (centres undefined)
[1]
  GI50: 29.8 µM (inactive)
[2]
  GI50: > 100 µM (inactive)
[3]
  GI50: 91.4 µM (inactive)
[4]
  GI50: 79.8 µM (inactive)
[5]
  GI50: 72.1 µM (inactive)
[6]
  GI50: 36.9 µM (inactive)
[7]
  GI50: > 100 µM (inactive)
[8]
  GI50: 22.2 µM (inactive)
[9]
  GI50: 49.7 µM (inactive)
[10]
  GI50: > 100 µM (inactive)
[11]
  GI50: > 100 µM (inactive)
[12]
  GI50: 69 µM (inactive)
[13]
  GI50: 51.5 µM (inactive)
[14]
  GI50: 48.4 µM (inactive)
[15]
  GI50: > 100 µM (inactive)
[16]
  GI50: > 100 µM (inactive)
[17]
  GI50: > 100 µM (inactive)
[18]
  GI50: 24 µM (inactive)
[19]
  GI50: > 100 µM (inactive)
[20]
  GI50: 43.7 µM (inactive)
[21]
  GI50: > 100 µM (inactive)
[22]
  GI50: 11 µM (inactive)
[23]
  GI50: > 100 µM (inactive)
[24]
  GI50: 48.8 µM (inactive)
[25]
  GI50: > 100 µM (inactive)
[26]
  GI50: 23.1 µM (inactive)
[27]
  GI50: > 100 µM (inactive)
[28]
  GI50: 35.6 µM (inactive)
[29]
  GI50: > 100 µM (inactive)
[30]
  GI50: 56.8 µM (inactive)
[31]
  GI50: > 100 µM (inactive)
[32]
  GI50: > 100 µM (inactive)
[33]
  GI50: > 100 µM (inactive)
[34]
  GI50: 83.2 µM (inactive)
[35]
  GI50: > 100 µM (inactive)
[36]
  GI50: 83.8 µM (inactive)
[37]
  GI50: > 100 µM (inactive)
[38]
  GI50: > 100 µM (inactive)
[39]
  GI50: 53.8 µM (inactive)
[40]
  GI50: > 100 µM (inactive)
[41]
  GI50: > 100 µM (inactive)
[42]
  GI50: 1.78 µM (inactive)
[43]
  GI50: 52 µM (inactive)
[44]
  GI50: 83.2 µM (inactive)
[45]
  GI50: 18.2 µM (inactive)
[46]
  GI50: 0.0736 µM (active)
[47]
  GI50: > 100 µM (inactive)
[48]
  GI50: 72.4 µM (inactive)
[49]
  GI50: > 100 µM (inactive)
[50]
  GI50: > 100 µM (inactive)
[51]
  GI50: 18.2 µM
[52]
  GI50: 38.5 µM (inactive)
[53]
  GI50: 41.9 µM (inactive)
[54]
  GI50: > 100 µM (inactive)
[55]
  GI50: 45.5 µM (inactive)
[56]
  GI50: > 100 µM (inactive)

## Cc1ccc(NC(=O)C2C(=O)N(c3ccc(C)c(C)c3)C(=O)/C2=N\NC(N)=S)cc1C (centres undefined)
[1]
  GI50: > 100 µM (inactive)
[2]
  GI50: > 100 µM (inactive)
[4]
  GI50: > 100 µM (inactive)
[5]
  GI50: 56.8 µM (inactive)
[7]
  GI50: 29.6 µM (inactive)
[57]
  GI50: > 100 µM (inactive)
[8]
  GI50: 47.4 µM (inactive)
[9]
  GI50: > 100 µM (inactive)
[12]
  GI50: > 100 µM (inactive)
[13]
  GI50: > 100 µM (inactive)
[14]
  GI50: 79.6 µM (inactive)
[15]
  GI50: 61.4 µM (inactive)
[16]
  GI50: > 100 µM (inactive)
[17]
  GI50: > 100 µM (inactive)
[18]
  GI50: 42.6 µM (inactive)
[19]
  GI50: > 100 µM (inactive)
[20]
  GI50: 50.2 µM (inactive)
[21]
  GI50: > 100 µM (inactive)
[22]
  GI50: > 100 µM (inactive)
[24]
  GI50: > 100 µM (inactive)
[25]
  GI50: > 100 µM (inactive)
[26]
  GI50: > 100 µM (inactive)
[27]
  GI50: > 100 µM (inactive)
[29]
  GI50: > 100 µM (inactive)
[30]
  GI50: 58.3 µM (inactive)
[31]
  GI50: > 100 µM (inactive)
[32]
  GI50: > 100 µM (inactive)
[34]
  GI50: > 100 µM (inactive)
[35]
  GI50: > 100 µM (inactive)
[36]
  GI50: 53.2 µM (inactive)
[39]
  GI50: > 100 µM (inactive)
[41]
  GI50: > 100 µM (inactive)
[58]
  GI50: 97.1 µM (inactive)
[42]
  GI50: > 100 µM (inactive)
[43]
  GI50: 60.7 µM (inactive)
[44]
  GI50: 50 µM (inactive)
[45]
  GI50: > 100 µM (inactive)
[46]
  GI50: > 100 µM (inactive)
[47]
  GI50: 45 µM (inactive)
[48]
  GI50: 78 µM (inactive)
[49]
  GI50: 96.4 µM (inactive)
[50]
  GI50: > 100 µM (inactive)
[51]
  GI50: > 100 µM
[52]
  GI50: > 100 µM (inactive)
[54]
  GI50: > 100 µM (inactive)
[55]
  GI50: > 100 µM (inactive)
[56]
  GI50: > 100 µM (inactive)

## CCNC(=O)COc1ccc(Br)cc1Br
[1]
  GI50: > 100 µM (inactive)
[2]
  GI50: > 100 µM (inactive)
[3]
  GI50: > 100 µM (inactive)
[4]
  GI50: > 100 µM (inactive)
[5]
  GI50: > 100 µM (inactive)
[6]
  GI50: > 100 µM (inactive)
[7]
  GI50: 54.7 µM (inactive)
[57]
  GI50: > 100 µM (inactive)
[8]
  GI50: > 100 µM (inactive)
[9]
  GI50: > 100 µM (inactive)
[11]
  GI50: > 100 µM (inactive)
[12]
  GI50: > 100 µM (inactive)
[13]
  GI50: 69.7 µM (inactive)
[14]
  GI50: > 100 µM (inactive)
[15]
  GI50: > 100 µM (inactive)
[16]
  GI50: > 100 µM (inactive)
[17]
  GI50: > 100 µM (inactive)
[18]
  GI50: > 100 µM (inactive)
[19]
  GI50: 42.9 µM (inactive)
[20]
  GI50: > 100 µM (inactive)
[21]
  GI50: > 100 µM (inactive)
[22]
  GI50: > 100 µM (inactive)
[23]
  GI50: > 100 µM (inactive)
[24]
  GI50: > 100 µM (inactive)
[25]
  GI50: > 100 µM (inactive)
[26]
  GI50: > 100 µM (inactive)
[27]
  GI50: > 100 µM (inactive)
[28]
  GI50: > 100 µM (inactive)
[29]
  GI50: > 100 µM (inactive)
[30]
  GI50: > 100 µM (inactive)
[31]
  GI50: > 100 µM (inactive)
[32]
  GI50: > 100 µM (inactive)
[33]
  GI50: 86.5 µM (inactive)
[34]
  GI50: > 100 µM (inactive)
[35]
  GI50: > 100 µM (inactive)
[36]
  GI50: > 100 µM (inactive)
[59]
  GI50: > 100 µM (inactive)
[37]
  GI50: > 100 µM (inactive)
[38]
  GI50: > 100 µM (inactive)
[39]
  GI50: > 100 µM (inactive)
[40]
  GI50: > 100 µM (inactive)
[41]
  GI50: > 100 µM (inactive)
[42]
  GI50: > 100 µM (inactive)
[43]
  GI50: > 100 µM (inactive)
[44]
  GI50: 33.3 µM (inactive)
[45]
  GI50: > 100 µM (inactive)
[46]
  GI50: > 100 µM (inactive)
[47]
  GI50: > 100 µM (inactive)
[48]
  GI50: > 100 µM (inactive)
[49]
  GI50: > 100 µM (inactive)
[51]
  GI50: > 100 µM
[52]
  GI50: > 100 µM (inactive)
[53]
  GI50: > 100 µM (inactive)
[54]
  GI50: 1.98 µM (inactive)
[55]
  GI50: 29 µM (inactive)
[56]
  GI50: > 100 µM (inactive)

## O=C(c1ccccc1)N1C2CCC1C(C(F)(F)F)=C2C(F)(F)F
[1]
  GI50: > 100 µM (inactive)
[2]
  GI50: > 100 µM (inactive)
[3]
  GI50: > 100 µM (inactive)
[5]
  GI50: > 100 µM (inactive)
[6]
  GI50: > 100 µM (inactive)
[7]
  GI50: > 100 µM (inactive)
[57]
  GI50: > 100 µM (inactive)
[8]
  GI50: > 100 µM (inactive)
[9]
  GI50: > 100 µM (inactive)
[10]
  GI50: > 100 µM (inactive)
[11]
  GI50: > 100 µM (inactive)
[12]
  GI50: > 100 µM (inactive)
[13]
  GI50: > 100 µM (inactive)
[14]
  GI50: > 100 µM (inactive)
[15]
  GI50: > 100 µM (inactive)
[16]
  GI50: > 100 µM (inactive)
[17]
  GI50: > 100 µM (inactive)
[18]
  GI50: > 100 µM (inactive)
[20]
  GI50: > 100 µM (inactive)
[21]
  GI50: > 100 µM (inactive)
[22]
  GI50: > 100 µM (inactive)
[23]
  GI50: > 100 µM (inactive)
[24]
  GI50: > 100 µM (inactive)
[25]
  GI50: > 100 µM (inactive)
[26]
  GI50: > 100 µM (inactive)
[27]
  GI50: > 100 µM (inactive)
[28]
  GI50: > 100 µM (inactive)
[29]
  GI50: > 100 µM (inactive)
[30]
  GI50: > 100 µM (inactive)
[31]
  GI50: > 100 µM (inactive)
[32]
  GI50: > 100 µM (inactive)
[33]
  GI50: > 100 µM (inactive)
[34]
  GI50: > 100 µM (inactive)
[36]
  GI50: > 100 µM (inactive)
[59]
  GI50: > 100 µM (inactive)
[37]
  GI50: > 100 µM (inactive)
[38]
  GI50: > 100 µM (inactive)
[39]
  GI50: > 100 µM (inactive)
[40]
  GI50: > 100 µM (inactive)
[41]
  GI50: > 100 µM (inactive)
[42]
  GI50: > 100 µM (inactive)
[43]
  GI50: > 100 µM (inactive)
[44]
  GI50: > 100 µM (inactive)
[45]
  GI50: 45.7 µM (inactive)
[46]
  GI50: > 100 µM (inactive)
[47]
  GI50: > 100 µM (inactive)
[48]
  GI50: > 100 µM (inactive)
[49]
  GI50: > 100 µM (inactive)
[50]
  GI50: > 100 µM (inactive)
[51]
  GI50: > 100 µM
[52]
  GI50: > 100 µM (inactive)
[53]
  GI50: > 100 µM (inactive)
[54]
  GI50: > 100 µM (inactive)
[55]
  GI50: > 100 µM (inactive)
[56]
  GI50: > 100 µM (inactive)
